Measured values taken from publication PMC10817917, “Alkyl deoxyglycoside-polymyxin combinations against critical priority carbapenem-resistant gram-negative bacteria” (Scientific Reports, 2024).
In brackets after ≈: the same amount, converted by molar mass. Read-outs that look alike come from different tables or passages of the source.

Columns and labels:
HEK-293T cells = assay: Resazurin cell viability assay (cytotoxicity); type: cell-based, human; conditions: 72 h, read-out: IC50
Outline: (§1)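 HEK-293T and Caco-2 cells (1.5 × 10^4/well, RPMI 1640 with 10% FBS) exposed 72 h at 37 °C to glycosides at final 100 to 10 µM, alone or with PMB or colistin at final 0.5, 0.25 or 0.125 µg/mL; max DMSO 0.33%. Resazurin added 4 h, read 570/600 nm; IC50 from dose-response fits, mean ± SD of three replicates.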

Caco-2 cells = assay: Resazurin cell viability assay (cytotoxicity); type: cell-based, human; conditions: read-out: IC50
Outline: as §1

E. coli ATCC 25922 = assay: Broth microdilution MIC/MBC, glycosides with or without polymyxins; type: cell-based, Escherichia coli; conditions: for MIC: Escherichia coli, ATCC25922
[1] = system: Bacillus anthracis (Sterne, ovine and pathogenic forms), Enterococcus faecalis and Bacillus cereus; conditions: Gram-positive bacteria; cited from earlier work
A. baumannii CQ4322 = assay: Broth microdilution MIC/MBC, glycosides with or without polymyxins; type: cell-based, Acinetobacter baumannii; conditions: for MIC: Acinetobacter baumannii, CQ4322
K. pneumoniae CQ1942 = assay: Broth microdilution MIC, glycosides with or without polymyxins; type: cell-based, Klebsiella pneumoniae; conditions: for MIC: Klebsiella pneumoniae, CQ1942
E. coli NCTC 13846 = assay: Broth microdilution MIC/MBC, glycosides with or without polymyxins; type: cell-based, Escherichia coli; conditions: strain B
[2] = alone, read-out: MICA (MIC of each compound individually)
[3] = combination with the lowest FICI
[4] = compound + colistin, lowest FICI

Molecule CCCCCCCCCCCCO[C@H]1O[C@H](C)C[C@H](O)[C@H]1O [Compound 1, dodecyl 4,6-dideoxy-α/β-D-xylo-hexopyranoside] has an IC50 (HEK-293T cells; Homo sapiens, HEK-293T, Colistin 0.25 μg/mL) of 69.4 ± 2.58 µM, an IC50 (HEK-293T cells; Homo sapiens, HEK-293T, Colistin 0.5 μg/mL) of 65.9 ± 3.75 µM and an IC50 (HEK-293T cells; Homo sapiens, HEK-293T, No polymyxin) of 65.8 ± 1.28 µM. For the same molecule, the IC50 (HEK-293T cells; Homo sapiens, HEK-293T, PMB 0.125 μg/mL) was 64.6 ± 0.87 µM, the IC50 (HEK-293T cells; Homo sapiens, HEK-293T, PMB 0.25 μg/mL) was 65.32 ± 0.4 µM and the IC50 (HEK-293T cells; Homo sapiens, HEK-293T, PMB 0.5 μg/mL) was 67.7 ± 1.22 µM. For the same molecule, the IC50 (HEK-293T cells; Homo sapiens, HEK-293T, tested alone (no polymyxin adjuvant)) was 20.8 µg/mL, the IC50 (HEK-293T cells; No polymyxin) was 65.8 µM and the IC50 (Caco-2 cells; Homo sapiens, Caco-2, 72 h, Colistin 0.25 μg/mL) was 54.7 ± 1.04 µM. It also gave an IC50 (Caco-2 cells; Homo sapiens, Caco-2, 72 h, Colistin 0.5 μg/mL) of 52.5 ± 2.28 µM, an IC50 (Caco-2 cells; Homo sapiens, Caco-2, 72 h, No polymyxin) of 54.2 ± 2.77 µM and an IC50 (Caco-2 cells; Homo sapiens, Caco-2, 72 h, PMB 0.25 μg/mL) of 50.5 ± 0.15 µM. The IC50 (Caco-2 cells; Homo sapiens, Caco-2, 72 h, PMB 0.5 μg/mL) was 52.2 ± 1.77 µM, the IC50 (Caco-2 cells; Homo sapiens, Caco-2, 72 h, tested alone (no polymyxin adjuvant)) was 17.2 µg/mL and the IC50 (Caco-2 cells; No polymyxin, 72 h) was 54.3 µM. The “MIC of colistin in combination with the compound” value (shortened to “MIC … with the compound”) (E. coli ATCC 25922; Cpd conc. 0.4 μg/mL, strain A) was > 0.5 µg/mL, the “MIC … with the compound” value (E. coli ATCC 25922; Cpd conc. 0.8 μg/mL, strain A) was > 0.5 µg/mL and the “MIC … with the compound” value (E. coli ATCC 25922; Cpd conc. 3.125 μg/mL, strain A) was 0.25 µg/mL. The “MIC … with the compound” value (E. coli ATCC 25922; Cpd conc. 6.25 μg/mL, strain A) was 0.25 µg/mL, the “MIC … with the compound” value (E. coli ATCC 25922; Cpd conc. 12.5 μg/mL, strain A) was 0.25 µg/mL and the “MIC … with the compound” value (E. coli ATCC 25922; Cpd conc. […], strain A) was > 0.5 µg/mL. The MIC (E. coli ATCC 25922; agent alone, no adjuvant (polymyxin conc. 0), strain A, read-out: MIC) was > 100 µg/mL, the MIC (E. coli ATCC 25922; [2]) was > 100 µg/mL and the “MIC of compound in combination with PMB” value (E. coli ATCC 25922; PMB 0.25 μg/mL, strain A) was > 100 µg/mL. The “MIC of compound in combination with PMB” value (E. coli ATCC 25922; PMB 0.5 μg/mL, strain A) was 3.1 µg/mL, the “MIC of compound in combination with colistin” value (E. coli ATCC 25922; colistin 0.06 μg/mL, strain A) was > 100 µg/mL and the “MIC of compound in combination with colistin” value (E. coli ATCC 25922; colistin 0.125 μg/mL, strain A) was > 100 µg/mL. For the same molecule, the “MIC of compound in combination with colistin” value (E. coli ATCC 25922; colistin 0.25 μg/mL, strain A) was 3.1 µg/mL, the “MIC of compound in combination with colistin” value (E. coli ATCC 25922; colistin 0.5 μg/mL, strain A) was 3.1 µg/mL and the “MICA(A + B) (MIC of compound in combination with colistin)” value (“MICA(A + B)” for short) (E. coli ATCC 25922; [3]) was 3.125 µg/mL. The “MICB(A + B) (MIC of colistin in combination with compound)” value (from here on “MICB(A + B)”) (E. coli ATCC 25922; [3]) was 0.25 µg/mL, the “Interpretation (of FICI)” value (E. coli ATCC 25922; compound + colistin) was “Additive (from 0.5 to 1.0 were additive)” and the FICI (E. coli ATCC 25922; [4]) was 0.52. The MIC [1] was 12.6 µM (≈ 3.99 µg/mL), the MIC (A. baumannii CQ4322; agent alone, no adjuvant (polymyxin conc. 0), strain G, read-out: MIC) was > 100 µg/mL and the MIC (A. baumannii CQ4322; [2]) was > 100 µg/mL. For the same molecule, the “MIC … with the compound” value (A. baumannii CQ4322; Cpd conc. 0.4 μg/mL, strain G) was > 0.5 µg/mL, the “MIC … with the compound” value (A. baumannii CQ4322; Cpd conc. 0.8 μg/mL, strain G) was > 0.5 µg/mL and the “MIC … with the compound” value (A. baumannii CQ4322; Cpd conc. 3.125 μg/mL, strain G) was 0.25 µg/mL. For the same molecule, the “MIC … with the compound” value (A. baumannii CQ4322; Cpd conc. 6.25 μg/mL, strain G) was 0.25 µg/mL, the “MIC … with the compound” value (A. baumannii CQ4322; Cpd conc. 12.5 μg/mL, strain G) was 0.25 µg/mL and the “MIC … with the compound” value (A. baumannii CQ4322; Cpd conc. […], strain G) was 0.5 µg/mL. The “MIC of compound in combination with PMB” value (A. baumannii CQ4322; PMB 0.25 μg/mL, strain G) was > 100 µg/mL, the “MIC of compound in combination with PMB” value (A. baumannii CQ4322; PMB 0.5 μg/mL, strain G) was 3.1 µg/mL and the “MIC of compound in combination with colistin” value (A. baumannii CQ4322; colistin 0.06 μg/mL, strain G) was > 100 µg/mL. The “MIC of compound in combination with colistin” value (A. baumannii CQ4322; colistin 0.125 μg/mL, strain G) was > 100 µg/mL, the “MIC of compound in combination with colistin” value (A. baumannii CQ4322; colistin 0.25 μg/mL, strain G) was 3.1 µg/mL and the “MIC of compound in combination with colistin” value (A. baumannii CQ4322; colistin 0.5 μg/mL, strain G) was 1.6 µg/mL. The “MICA(A + B)” value (A. baumannii CQ4322; [3]) was 3.125 µg/mL, the “MICB(A + B)” value (A. baumannii CQ4322; [3]) was 0.25 µg/mL and the “Interpretation (of FICI)” value (A. baumannii CQ4322; compound + colistin) was “Additive (from 0.5 to 1.0 were additive)”. For the same molecule, the FICI (A. baumannii CQ4322; [4]) was 0.52, the “MIC … with the compound” value (K. pneumoniae CQ1942; Cpd conc. 0.4 μg/mL, strain E) was > 0.5 µg/mL and the “MIC … with the compound” value (K. pneumoniae CQ1942; Cpd conc. 0.8 μg/mL, strain E) was 0.5 µg/mL. For the same molecule, the “MIC … with the compound” value (K. pneumoniae CQ1942; Cpd conc. 3.125 μg/mL, strain E) was 0.25 µg/mL, the “MIC … with the compound” value (K. pneumoniae CQ1942; Cpd conc. 6.25 μg/mL, strain E) was 0.25 µg/mL and the “MIC … with the compound” value (K. pneumoniae CQ1942; Cpd conc. 12.5 μg/mL, strain E) was 0.25 µg/mL. The “MIC … with the compound” value (K. pneumoniae CQ1942; Cpd conc. […], strain E) was 0.5 µg/mL, the MIC (K. pneumoniae CQ1942; agent alone, no adjuvant (polymyxin conc. 0), strain E, read-out: MIC) was > 100 µg/mL and the MIC (K. pneumoniae CQ1942; [2]) was > 100 µg/mL. For the same molecule, the “MIC of compound in combination with PMB” value (K. pneumoniae CQ1942; PMB 0.25 μg/mL, strain E) was > 100 µg/mL, the “MIC of compound in combination with PMB” value (K. pneumoniae CQ1942; PMB 0.5 μg/mL, strain E) was 1.6 µg/mL and the “MIC of compound in combination with colistin” value (K. pneumoniae CQ1942; colistin 0.06 μg/mL, strain E) was > 100 µg/mL. For the same molecule, the “MIC of compound in combination with colistin” value (K. pneumoniae CQ1942; colistin 0.125 μg/mL, strain E) was > 100 µg/mL, the “MIC of compound in combination with colistin” value (K. pneumoniae CQ1942; colistin 0.25 μg/mL, strain E) was 3.1 µg/mL and the “MIC of compound in combination with colistin” value (K. pneumoniae CQ1942; colistin 0.5 μg/mL, strain E) was 0.8 µg/mL. For the same molecule, the “MICA(A + B)” value (K. pneumoniae CQ1942; [3]) was 3.125 µg/mL, the “MICB(A + B)” value (K. pneumoniae CQ1942; [3]) was 0.25 µg/mL and the “Interpretation (of FICI)” value (K. pneumoniae CQ1942; compound + colistin) was “Additive (from 0.5 to 1.0 were additive)”. The FICI (K. pneumoniae CQ1942; [4]) was 0.52, the “MIC … with the compound” value (E. coli NCTC 13846; Cpd conc. 0.4 μg/mL) was > 0.5 µg/mL and the “MIC … with the compound” value (E. coli NCTC 13846; Cpd conc. 0.8 μg/mL) was > 0.5 µg/mL. The “MIC … with the compound” value (E. coli NCTC 13846; Cpd conc. 3.125 μg/mL) was > 0.5 µg/mL, the “MIC … with the compound” value (E. coli NCTC 13846; Cpd conc. 6.25 μg/mL) was > 0.5 µg/mL and the “MIC … with the compound” value (E. coli NCTC 13846; Cpd conc. 12.5 μg/mL) was > 0.5 µg/mL. For the same molecule, the “MIC … with the compound” value (E. coli NCTC 13846; Cpd conc. […]) was > 0.5 µg/mL, the MIC (E. coli NCTC 13846; Escherichia coli, NCTC13846, agent alone, no adjuvant (polymyxin conc. 0), read-out: MIC) was > 100 µg/mL and the “MIC of compound in combination with PMB” value (E. coli NCTC 13846; PMB 0.25 μg/mL) was > 100 µg/mL. For the same molecule, the “MIC of compound in combination with PMB” value (E. coli NCTC 13846; PMB 0.5 μg/mL) was > 100 µg/mL, the “MIC of compound in combination with colistin” value (E. coli NCTC 13846; colistin 0.06 μg/mL) was > 100 µg/mL and the “MIC of compound in combination with colistin” value (E. coli NCTC 13846; colistin 0.125 μg/mL) was > 100 µg/mL. The “MIC of compound in combination with colistin” value (E. coli NCTC 13846; colistin 0.25 μg/mL) was > 100 µg/mL and the “MIC of compound in combination with colistin” value (E. coli NCTC 13846; colistin 0.5 μg/mL) was > 100 µg/mL.
